The subject of the experiment is LOVO cells. Kind of experiment: Cell proliferation assay (CellTiter-Glo). It counts as cell-based. To be noted: Homo sapiens, 96 hours. In general terms: ATP-based viability assays read luminescence as a measure of living cells.

`C[C@@H]1COCCN1c1cc(N2CC3CCC(C2)O3)nc2c(-c3cc[nH]n3)cnn12` [Example 1, 3-(7-((R)-3-methylmorpholino)-3-(1H-pyrazol-3-yl)pyrazolo[1,5-a]pyrimidin-5-yl)-8-oxa-3-azabicyclo[3.2.1]octane] came in with a 50% inhibitory concentration (IC50) of 304 nM.

A word on the IC50: it is the concentration needed to halve the response being measured.

These data come from patent publication US20240294550A1, “8-OXA-3-AZABICYCLO[3.2.1]OCTANE COMPOUNDS OR SALT THEREOF, AND PREPARATION METHOD AND USE THEREOF” (LITTDD MEDICINES LTD, priority 2021, published 2024).
